These results are taken from PubChem BioAssay (NCI).

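In this assay, cells in 96-well plates receive the compound at five concentrations for 48 hours. Endpoints are linearly interpolated between the surrounding concentrations. GI50 is the concentration that inhibits growth by half. TGI: total growth inhibition.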

What all share (assay): inhibition of tumour cell growth, NCI panel, 48 h
For test [1], the system named is OVCAR-4 ovarian.
Test [2] relates to COLO 205 colon.
Test [3] relates to ACHN renal.
In test [4] the test system is SNB-19 CNS.
In test [5] the test system is TK-10 renal.
The subject of test [6] is MDA-MB-435.
The subject of test [7] is SK-MEL-5 melanoma.
Test [8] has as its system RPMI-8226 leukemia.
Test [9] deals with CCRF-CEM leukemia.
The subject of test [10] is HCC-2998 colon.

Consider `CCN(CC)c1ccc2nc3c4ccccc4c(=NC(=O)c4ccccc4-c4c5ccc(N(CC)CC)cc5[o+]c5cc(N(CC)CC)ccc45)cc-3oc2c1`, for which the GI50 in test [1] was 1.25 µM; in test [2], 1.59 µM; in [3], 3.97 µM; in test [4], 2.3 µM; in test [5], 10.3 µM; in [6], 1.93 µM. In addition, the GI50 in [7] is 1.26 µM; in test [8] it was 0.722 µM; in test [9], 2.1 µM; in test [10] it was 1.62 µM. For the same compound, the TGI in [1] is 2.67 µM; in test [2] it was 3.83 µM; in [3] it was 13.7 µM; in test [4], 6.64 µM; in test [5], 31.5 µM; in [6], 4.33 µM. Also, the TGI in test [7] came out at 2.68 µM; in test [8] it was 4.2 µM; in test [9] it was 13.4 µM; in [10], 3.82 µM.
As to `O=[N+]([O-])c1ccc(-c2ccccc2)c([As](=O)(O)O)c1`, the GI50 in [1] is 14.6 µM; in test [2] it was 12.8 µM; in [3], 13.7 µM; in [4], 18.7 µM; in [5], 17.5 µM; in test [6] it was 21.9 µM. The GI50 in [7] is 40.6 µM; in test [8], 15.2 µM; in test [9] it was 4.42 µM; in test [10] it was 19.4 µM. In addition, the TGI in test [1] is 52 µM; in test [2] it was 27.4 µM; in test [3], 30.1 µM; in [4], greater than 100 µM; in [5] it was 38.5 µM; in [6] it was greater than 100 µM. Besides, the TGI in test [7] was greater than 100 µM; in test [8], 62.9 µM; in test [9], 39.9 µM; in test [10] it was 45.5 µM.
With `CC(=O)N[C@@H](Cc1ccc(OP(=O)(O)O)cc1)C(=O)N[C@H]1CCC(=O)N2CCC[C@@H](C(=O)NCc3ccc(O)cc3)N2C1=O`, the GI50 in test [1], in test [2], in test [3], in [4], in test [5] and in test [6] was greater than 25 µM in each case. The GI50 in [7], in test [8], in [9] and in [10] was greater than 25 µM in each case. Moreover, the TGI in test [1], in test [2], in test [3], in [4], in test [5] and in test [6] was greater than 25 µM each time. Moreover, the TGI in test [7], in [8], in test [9] and in test [10] was greater than 25 µM each time.
On to `COc1cc2c3c(c1O)C1(C=CC(=O)C=C1)CC3N(C)CC2` (stereo not given), for which the TGI is greater than 100 µM in test [1]; 18.2 µM in [2]; 43.4 µM in test [3]; 27.9 µM in [4]; 41.7 µM in test [5]; 23 µM in test [6]. For the same compound, the TGI in test [7] is 32.6 µM; in test [8], 83.7 µM; in [9], 13.8 µM; in [10] it was 24.8 µM.
For the compound `C/C(=N\Nc1cccc(Cl)n1)c1ccccn1`, the GI50 in test [1] is 0.439 µM; in test [2] it was 0.38 µM; in test [3] it was 0.556 µM; in test [4], 1.23 µM; in [5], 0.7 µM; in test [6] it was 1.78 µM. The GI50 in test [7] is 1.62 µM; in [8] it was 0.615 µM; in [9] it was 0.365 µM; in test [10], 0.75 µM. The TGI in test [1] was greater than 54.7 µM; in test [2], greater than 21.5 µM; in test [3] it was 18.4 µM; in test [4], greater than 100 µM; in test [5] it was greater than 100 µM; in test [6], greater than 100 µM. Besides, the TGI is 4.62 µM in [7], 8.28 µM in test [8], greater than 25.2 µM in test [9] and greater than 100 µM in [10].
For `COc1ccc(NC(=O)O[C@H]2[C@H](O[C@H]3[C@@H](O)COC(O[C@H]4C[C@H]5[C@@H]6CC=C7C[C@@H](O)CC[C@]7(C)[C@H]6CC[C@]5(C)[C@H]4[C@H](C)C(=O)CCC(C)C)[C@@H]3OC(C)=O)OC[C@@H](O)[C@@H]2O)cc1` (stereo not given in full), the GI50 in test [1] was 0.145 µM; in [2], 0.0105 µM; in test [3], 0.118 µM; in test [4], 0.0189 µM; in [5], 0.0966 µM; in test [6], less than 0.01 µM. In addition, the GI50 is less than 0.01 µM in test [7], less than 0.01 µM in [8], less than 0.01 µM in [9] and 0.566 µM in test [10]. Also, the TGI in test [1] was greater than 100 µM; in [2] it was 0.0363 µM; in [3] it was greater than 100 µM; in test [4], 3.36 µM; in test [5], 23.8 µM; in [6], 0.0628 µM. The TGI came to 0.0114 µM in [7], 0.879 µM in [8], 2.25 µM in [9] and 32.7 µM in [10].
For the compound `ClC1=C(Cl)C(Cl)=C(Cl)C1=Cc1ccc(Cl)cc1`, the GI50 in test [1] is 0.818 µM; in [2] it was 0.406 µM; in [3], 0.327 µM; in test [4], 1.07 µM; in test [5] it was 0.331 µM; in test [6] it was 0.507 µM. For the same compound, the GI50 in test [7] is 1.17 µM; in [8] it was 0.422 µM; in test [9] it was 0.33 µM; in test [10], 1.14 µM. Moreover, the TGI came to 2.34 µM in [1]; 1.52 µM in test [2]; 1.07 µM in [3]; 2.42 µM in [4]; 0.899 µM in test [5]; 2.95 µM in [6]. Besides, the TGI in test [7] came to 2.41 µM; in test [8], 5.32 µM; in [9], 2.47 µM; in test [10], 2.54 µM.
